From patent publication US6458837B1, “Lipophilic diesters of chelating agents” (D-Pharm Ltd., priority 1997, dated 2002)
Marks after values point to notes of the source that are not given here.

Experiments:
Na/K-ATPase = Na/K-ATPase activity in mouse brain cortex homogenate; type: biochemical; conditions: 10^−7 to 10^2 μg/ml; mouse cerebral cortex homogenate
Protocol: Thus, the effects of BAPTA-diesters on Na/K-ATPase activity were examined in mouse brain homogenates treated with different concentrations of diethyl-BAPTA (DP-BAPTA 27, disodium salt). The BAPTA-diester tested concentrations ranged from 10^−7 to 10^2 μg/ml.
Preparation of mouse brain homoganate. Male CD-1 mice (10 to 21 days of age) were sacrificed by rapid decapitation. The skull was opened, the brains removed and cut into two. The cortex was isolated, put into sodium Ringer's buffer, washed three times with ice cold PBS and kept on ice. The brain tissue was homogenized using a Polytron at 14000 rpm for 4×30 seconds, on ice. The homogenization buffer contained: 250 mM Sucrose; 1 mM EGTA; 20 mM HEPES-Tris, pH 7.4, and the protease inhibitor PMSF.
The homogenate was span down in a Sorval refrigerated centrifuge at 27000 g for 30 minutes. The membrane fraction was collected and re-suspended in the homogenization buffer. […]
Na/K-ATPase assay. Na/K ATPase was measured as described before (Norby J, G. Coupled (1988) Assay of the Na^+—K^+ ATPase Activity. Methods in Enzymology. 156: 116-119) in the absence and presence of the Na/K-ATPase inhibitor, ouabain (3 mM). The Protein content was determined using the Bio Rad-Bradford assay as previously described (Bradford, M. (1978) Protein assay. Ann. Biochem. 72: 248-257.).

[1] = Octanol-saline partition coefficient (lipophilicity); type: physicochemical; conditions: for LogPc, octanol-saline partition coefficient, M = Ca++: calcium salt (BAPTA: dicalcium salt); for LogPc, octanol-saline partition coefficient, M = Ca++ / LogPc, octanol-saline partition coefficient, M = Na+: octanol/physiological saline, 26° C.; for LogPc, octanol-saline partition coefficient, M = Na+: sodium salt (BAPTA: tetrasodium salt)
Protocol: The lipophilicity values of several BAPTA diesters salts of the invention were studied by comparing the solubility of these compounds in organic versus aqueous solutions. Octanol and physiological saline were used, respectively, as the organic and aqueous solutions. The partition coefficient (Pc), i.e the distribution ratio between the organic and the aqueous phases were determined for several specific BAPTA diesters salts of the general formula I: [drawing 6]

Mongolian gerbils [2] = conditions: for neuroprotective activity, sodium salt compared with calcium salt: global forebrain ischemia model; for neuronal damage (serum NSE activity 24 hours after ischemia): single dose 5μg/kg i.p. at onset of reperfusion (t=0) or 3 hours after (t=3), 10 min ischemia
Protocol: (§1) Animal. Male Mongolian gerbils 60-70 g (Charles River Laboratories, USA) were used for the study.
(§2) Induction of ischemia. Anesthesia was induced in gerbils with halothane (4%) in an anesthesia chamber (30% oxygen, 70% nitrous oxide) and was maintained with 1% halohtane in 30% oxygen and 70% nitrous oxide using face masks. For ischemia induction, both common carotid arteries were isolated via a neck midline incision and temporarily occluded for 10 or 20 min, as indicated, using arterial clips. During the entire period of cerebral ischemia, when the clips were in place, anesthesia was maintained only with 30% oxygen and 70% nitrous oxide, without halothane. Rectal temperature, monitored with a rectal probe, was maintained throughout ischemia at 37-37.5° C. by using a warming lamp and heating pad. Whenever applied, the tested BAPTA diesters were administered to the animals either parenterally via i.p. or orally, at the times and dosages as indicated in each particular experiment. Control animals were treated with the vehicle alone, i.e with 0.9% NaCl solution instead of the PABTA diester compound.
Statistics. Statistical analysis was carried out using the Student's t-test with Bonferroni corrections and p<0.05 as the level of significance.
Neuronal-specific enolase (NSE) assay. Blood samples were taken from the orbital sinus of gerbils 24 and 72 hours after 10 min period of cerebral ischemia. Blood samples were centrifuged for 5 min at 3000 rpm to obtain serum (the supernatant fraction). NSE activity in the serum was determined by radioimmunoassay using NSE kit (Pharmatope Ltd.,Israel).
The enzymatic activity of neuronal-specific enolase (NSE ) in the serum was used for evaluating the efficacy of the tested BAPTA-diesters in preventing neuronal damage. […] Thus, NSE may serve as a quantitative marker for the degree of neuronal damage.

Mongolian gerbils [3] = conditions: 5 μg/kg i.p. single dose immediately after 10 minutes ischemia; three days after ischemia
Mongolian gerbils [4] = assay: Global forebrain ischemia, animal survival; type: in vivo; conditions: 10 μg/kg i.p. single dose at onset of reperfusion; 20 min ischemia
Protocol: as §1, §2

[5] = Water/octanol distribution of Fe++ ions; type: physicochemical; conditions: 15 ml octanol / 15 ml saline pH 6.5; FeCl2 2×10^−3 M/L
Protocol: (§3) The hydrophilic/hydrophobic system used in this set of experiments consisted of 15 ml octanol and 15 ml saline pH=6.5. DP-BAPTA 99 was dissolved in the octanol solution before this phase was mixed with the saline. The DP-BAPTA concentration in the different experiments varied from 2.1×10^−6 to 5.5×10^−4 M/L in the experiments with Ca^2+ and from 5.4×10^−6 to 1.4×10^−3 M/L in the experiments with either Zn^2+ or Fe^2+, as indicated for each point in FIGS. 1A-C. The corresponding metal ions were added in the aqueous solution as chlorides at the following concentrations: FeCl2 2×10^−3 M/L, ZnCl2 10^−4 M/L, CaCl2 2×10^−3 M/L.
(§4) The octanol and buffer phases were mixed and vortexed for 1 hr at room temperature, followed by centrifugation at 4000 rpm, 10 min in order to separate the mixture to the two phases.
(§5) Different analytical procedures were employed for water and octanol samples: i) Water samples were analyzed versus ICP standards from Merk. Ca and Zn were determined in tested solutions by inductively coupled plasma atomic emission spectrometry. An ICP-AES, model “Spectroflame Modula E” from Spectro, Kleve, Germany was used, with a standard cross flow nebulizer and fixed EOP torch. The power level was 1.2 kW, coolant flow—15 l/min, auxilliary flow 0.5 l/min and nebulizer flow—0.5 l/min. ii) Octanol samples, 2-ml each, in a glass tube, were transferred to a heating block. […]

[6] = Water/octanol distribution of Zn++ ions; type: physicochemical; conditions: 15 ml octanol / 15 ml saline pH 6.5; ZnCl2 10^−4 M/L
Protocol: as §3, §4, §5

[7] = Water/octanol distribution of Ca++ ions; type: physicochemical; conditions: 15 ml octanol / 15 ml saline pH 6.5; CaCl2 2×10^−3 M/L
Protocol: as §3, §4, §5

[8] = test system: cultured hippocampal neurons; conditions: 0.1, 1.0 or 10.0 μg/ml perfused 5 minutes; 40 millisecond K+ pulses
Wistar rats = assay: Pilocarpine-induced epilepsy; conditions: i.p. one hour before pilocarpine 400 mg/kg
[9] = test system: cultured neuronal cells of rat hippocampus; assay: Intracellular Ca++ concentration, Fluo-3/AM fluorescence; type: cell-based; conditions: 1 mM in 9 sec. pulse applied onto cultured hippocampal neurons

| SMILES | effect on Na/K-ATPase activity (Na/K-ATPase) | LogPc, octanol-saline partition coefficient, M = Ca++ [1] | LogPc, octanol-saline partition coefficient, M = Na+ [1] | neuroprotective activity, sodium salt compared with calcium salt (Mongolian gerbils [2]) | neuronal damage (serum NSE activity 24 hours after ischemia) (Mongolian gerbils [2]) | ischemia-induced neuronal damage in CA-2, CA-3 and dentate gyrus regions of the hippocampus (Mongolian gerbils [3]) | extension of survival time (Mongolian gerbils [4]) [fold] | drug concentration at which transfer of Fe++ ions from water to octanol is evident [5] [µM] | drug concentration at which transfer of Zn++ ions from water to octanol is evident [6] [µM] | drug concentration at which transfer of Ca++ ions from water to octanol is evident [7] | effect on potassium-induced increase in intracellular calcium ion concentration [8] | lipophilicity relative to the sodium salt of the parent molecule BAPTA ([1]; octanol versus aqueous phase) | effect on generalized seizures (Wistar rats) | effect on limbic seizures (Wistar rats) | effect on mortality during the 3 hour period of status epilepticus (Wistar rats) | prevention of status epilepticus (Wistar rats) | serum NSE activity 24 h and 72 h after global cerebral ischemia (Mongolian gerbils [2]; oral, 0.5 mg/kg 4 hours before and at onset of reperfusion, or 0.5 mg/kg daily for 3 days after ischemia) | effect on intracellular calcium levels (Fluo-3 fluorescence) [9] |
| --- | --- | --- | --- | --- | --- | --- | --- | --- | --- | --- | --- | --- | --- | --- | --- | --- | --- | --- |
| CCOC(=O)CN(CC(=O)O)c1ccccc1OCCOc1ccccc1N(CC(=O)O)CC(=O)OCC [DP-BAPTA 27, diethyl-BAPTA] | dose dependent increase in Na/K-ATPase activity |  |  |  |  |  |  |  |  |  |  |  |  |  |  |  |  |  |
| CCCCCCCCOC(=O)CN(CC(=O)O)c1ccccc1OCCOc1ccccc1N(CC(=O)O)CC(=O)OCCCCCCCC [DP-BAPTA-60, Octyl diester of BAPTA] |  | 0.79 | 0.85 | equally effective | prevented neuronal damage | effective in decreasing the ischemia-induced neuronal damage in the same regions, albeit to a lesser extent than DP-BAPTA 99 | 2 |  |  |  |  |  |  |  |  |  |  |  |
| CCCCCCCCOCCOC(=O)CN(CC(=O)O)c1ccccc1OCCOc1ccccc1N(CC(=O)O)CC(=O)OCCOCCCCCCCC [DP-BAPTA-99, BAPTA diester of octylethylene glycol] |  | 1.10 | 0.80 | much pronounced neuroprotective activity comparing to the calcium salt | prevented neuronal damage | significant neuroprotective effect | 3 | 250 to 500 | 10 | 250 to 500 µM | attenuates potassium-induced increase in intracellular calcium ion concentration | 10,000 fold | capable of preventing generalized seizures | no effect | reduces mortality | about half of the population | significant reduction in NSE activity |  |
| O=C(O)CN(CC(=O)O)c1ccccc1OCCOc1ccccc1N(CC(=O)O)CC(=O)O [BAPTA, 1,2-bis(2 aminophenoxy)ethane-N,N,N′,N′-tetraacetic acid, reference compound] |  | −1.71^d) | −3.3^c) |  |  |  |  |  |  | does not |  |  |  |  |  |  |  | only insignificant increase in intracellular Ca^2+ |
